The structures appear in SMILES notation.

Data on ten compounds can be found in US7501422B2, “Prolinamide-tetrazole derivatives as NK3 receptor antagonists” (Hoffmann-La Roche Inc., priority 2007, dated 2009).

The target of one experiment is T1, recombinant human NK3 receptor (Homo sapiens, UniProt P29371).
T1 construct: expressed in transfected cells; host or cells: HEK293 cells, transient expression; membranes
T1 sequence (P29371 1-465): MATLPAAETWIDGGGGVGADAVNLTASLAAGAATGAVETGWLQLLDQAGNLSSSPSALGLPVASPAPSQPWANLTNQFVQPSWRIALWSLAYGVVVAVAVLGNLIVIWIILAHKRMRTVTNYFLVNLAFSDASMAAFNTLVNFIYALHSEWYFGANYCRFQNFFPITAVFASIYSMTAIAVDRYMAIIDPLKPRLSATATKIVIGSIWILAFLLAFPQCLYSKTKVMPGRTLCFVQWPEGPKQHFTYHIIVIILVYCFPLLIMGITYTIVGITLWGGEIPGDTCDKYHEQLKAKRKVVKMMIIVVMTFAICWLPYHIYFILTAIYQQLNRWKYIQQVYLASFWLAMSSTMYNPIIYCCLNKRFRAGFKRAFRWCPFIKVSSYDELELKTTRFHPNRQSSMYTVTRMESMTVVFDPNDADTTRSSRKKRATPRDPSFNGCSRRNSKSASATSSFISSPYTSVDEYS
Put plainly: [3H]SR142801 competition binding assay. To be noted: membranes from HEK293 cells transiently expressing recombinant human NK3 receptor; [3H]SR142801 radioligand; read-out: Data Ki (hNK-3 receptor affinity). The procedure:
[^3H]SR142801 Competition Binding Assay
hNK3 receptor binding experiment were performed using [^3H]SR142801 (Catalog No. TRK1035, specific activity: 74.0 Ci/mmol, Amersham, G E Healthcare UK limited, Buckinghamshire, UK) and membrane isolated from HEK293 cells transiently expressing recombinant human NK3 receptor. After thawing, the membrane homogenates were centrifuged at 48,000×g for 10 min at 4° C., the pellets were resuspended in the 50 mM Tris-HCl, 4 mM MnCl2, 1 μM phosphoramidon, 0.1% BSA binding buffer at pH 7.4 to a final assay concentration of 5 μg protein/well. For inhibition experiments, membranes were incubated with [^3H]SR142801 at a concentration equal to KD value of radioligand and 10 concentrations of the inhibitory compound (0.0003-10 μM) (in a total reaction volume of 500 μl) for 75 min at room temperature (RT). At the end of the incubation, membranes were filtered onto unitfilter (96-well white microplate with bonded GF/C filter preincubated 1 h in 0.3% PEI+0.3% BSA, Packard BioScience, Meriden, Conn.) with a Filtermate 196 harvester (Packard BioScience) and washed 4 times with ice-cold 50 mM Tris-HCl, pH 7.4 buffer. Nonspecific binding was measured in the presence of 10 μM SB222200 for both radioligands. The radioactivity on the filter was counted (5 min) on a Packard Top-count microplate scintillation counter with quenching correction after addition of 45 μl of microscint 40 (Can berra Packard S. A., Zürich, Switzerland) and shaking for 1 h. Inhibition curves were fitted according to the Hill equation: y=100/(1+(x/IC50)^nH), where nH=slope factor using Excel-fit 4 software (Microsoft). IC50 values were derived from the inhibition curve and the affinity constant (Ki) values were calculated using the Cheng-Prussoff equation Ki=IC50/(1+[L]/KD) where [L] is the concentration of radioligand and KD is its dissociation constant at the receptor, derived from the saturation isotherm. All experiments were performed in duplicate and the mean±standard error (SEM) of the individual Ki values was calculated.
In the case of `N#Cc1ccccc1N1CCN(C(=O)[C@@H]2C[C@H](n3nnc(-c4ccc(F)cc4F)n3)CN2Cc2ccccc2)CC1` [Example 1, 2-(4-{(2S,4S)-1-Benzyl-4-[5-(2,4-difluoro-phenyl)-tetrazol-2-yl]-pyrrolidine-2-carbonyl}-piperazin-1-yl)-benzonitrile], the Ki came to 84 nM.
Same read-out and setting: with `N#Cc1ccccc1N1CCN(C(=O)[C@@H]2C[C@H](n3nnc(-c4ccc(F)cc4F)n3)CN2Cc2ccccc2F)CC1` [Example 2, 2-{4-[(2S,4S)-4-[5-(2,4-Difluoro-phenyl)-tetrazol-2-yl]-1-(2-fluoro-benzyl)-pyrrolidine-2-carbonyl]-piperazin-1-yl}-benzonitrile] the figure was 23 nM; with `N#Cc1ccccc1N1CCN(C(=O)[C@@H]2C[C@H](n3nnc(-c4ccc(F)cc4F)n3)CN2Cc2cccc(F)c2)CC1` [Example 3, 2-{4-[(2S,4S)-4-[5-(2,4-Difluoro-phenyl)-tetrazol-2-yl]-1-(3-fluoro-benzyl)-pyrrolidine-2-carbonyl]-piperazin-1-yl}-benzonitrile], 320 nM; with `N#Cc1ccccc1N1CCN(C(=O)[C@@H]2C[C@H](n3nnc(-c4ccc(F)cc4F)n3)CN2Cc2ccc(F)cc2)CC1` [Example 4, 2-{4-[(2S,4S)-4-[5-(2,4-Difluoro-phenyl)-tetrazol-2-yl]-1-(4-fluoro-benzyl)-pyrrolidine-2-carbonyl]-piperazin-1-yl}-benzonitrile], 965 nM.
For `N#Cc1ccccc1N1CCN(C(=O)[C@@H]2C[C@H](n3nnc(-c4ccc(F)cc4F)n3)CN2Cc2ccccc2Cl)CC1` [Example 5, 2-(4-{(2S,4S)-1-(2-Chloro-benzyl)-4-[5-(2,4-difluoro-phenyl)-tetrazol-2-yl]-pyrrolidine-2-carbonyl}-piperazin-1-yl)-benzonitrile], the Ki was 280 nM.
The same measure, in the same setting: the same measure for `N#Cc1ccccc1N1CCN(C(=O)[C@@H]2C[C@H](n3nnc(-c4ccc(F)cc4F)n3)CN2Cc2cccc(Cl)c2)CC1` [Example 6, 2-(4-{(2S,4S)-1-(3-Chloro-benzyl)-4-[5-(2,4-difluoro-phenyl)-tetrazol-2-yl]-pyrrolidine-2-carbonyl}-piperazin-1-yl)-benzonitrile]: 295 nM.
The same measure, in the same setting: with `N#Cc1ccccc1N1CCN(C(=O)[C@@H]2C[C@H](n3nnc(-c4ccc(F)cc4F)n3)CN2Cc2ccc(Cl)cc2)CC1` [Example 7, 2-(4-{(2S,4S)-1-(4-Chloro-benzyl)-4-[5-(2,4-difluoro-phenyl)-tetrazol-2-yl]-pyrrolidine-2-carbonyl}-piperazin-1-yl)-benzonitrile] the figure was 208 nM; with `N#Cc1ccccc1N1CCN(C(=O)[C@@H]2C[C@H](n3nnc(-c4ccc(F)cc4F)n3)CN2CC2CCCCC2)CC1` [Example 8, 2-(4-{(2S,4S)-1-Cyclohexylmethyl-4-[5-(2,4-difluoro-phenyl)-tetrazol-2-yl]-pyrrolidine-2-carbonyl}-piperazin-1-yl)-benzonitrile], 696 nM; with `N#Cc1ccccc1N1CCN(C(=O)[C@@H]2C[C@H](n3nnc(-c4ccc(F)cc4F)n3)CN2Cc2ccc(F)c(F)c2)CC1` [Example 9, 2-(4-{(2S,4S)-1-(3,4-Difluoro-benzyl)-4-[5-(2,4-difluoro-phenyl)-tetrazol-2-yl]-pyrrolidine-2-carbonyl}-piperazin-1-yl)-benzonitrile], 387 nM.

A further experiment addresses T2, NK3 tachykinin receptor (Homo sapiens, UniProt P29371).
T2 sequence (P29371 1-465): T1 sequence (P29371 1-465)
Experiment: not given
As to conditions: phase II trial; negative symptoms (depression, anhedonia, social isolation, memory and attention deficits); cited from earlier work.
Consider `CC(=O)N(C)C1(c2ccccc2)CCN(CCC[C@]2(c3ccc(Cl)c(Cl)c3)CCCN(C(=O)c3ccccc3)C2)CC1` [SR 142,801, Osanetant], for which the “activity in treatment of negative symptoms of schizophrenia” value was “inactive”.

The same experiment, now with this note: phase II trial; positive symptoms (altered behavior, delusion, hallucinations, extreme emotions, excited motor activity, incoherent speech); cited from earlier work.
Regarding `CC(=O)N(C)C1(c2ccccc2)CCN(CCC[C@]2(c3ccc(Cl)c(Cl)c3)CCCN(C(=O)c3ccccc3)C2)CC1` [SR 142,801, Osanetant], the “activity on positive symptoms of schizophrenia” value is “active”.

In general, Ki refers to the dissociation constant of the complex between target and ligand, obtained from inhibition or displacement.
